Laboratory results: publication PMC11868579 (Nature Communications, 2024)
Several values for one entry are separate records, joined by “and”; a condition that tells them apart may be missing. Equal values may be shown once.

Columns and labels:
[1] = test system: IRES-driven translation; test: HeLa in vitro translation assay, IRES-driven reporter; type: biochemical, human; conditions: for rLuc (IRES) luminescence normalized to DMSO control, Average: HeLa lysate IVT, n=3
Protocol: HeLa In vitro translation (IVT) assay kits were purchased from Thermo Fisher(cat#88882). Bicistronic reporter mRNA was prepared from using a CMV/T7-renilla luciferase-IRES(FDMV)-firefly luciferase reporter vector as template DNA (supplied by Oxford Genetics Ltd.) using Message Machine T7 Ultra transcription Kit (Thermo Fisher, cat# AM1345) to generate in vitro transcribed mRNA. DNA template was removed with Turbo DNase from the transcription kit and the mRNA purified using RNeasy columns (Qiagen, cat#74204). RNA concentration was adjusted to 1 µg/µl using a Nanodrop. In vitro translation assays were then set up using a HeLa IVT kit according to the manufacturer’s protocol. The reaction was analysed using Dual Glo luciferase reporter assays (Promega, cat#E2920). Compounds were diluted from 100x DMSO stocks 1:10 in PBS and 2.5 µl transferred to 96 well PCR plates (Starlab, cat#I1402-9700). 22.5 µl IVT reaction mix (1.5 mL HeLa lysate, 60 µl RNAsin (Promega, cat#N2115), 300 µl accessory proteins, 600 µl reaction buffer, 200 µl nuclease free water and 30 µl […] mRNA) was added and incubated for 30 min at 30 °C (PCR alphacycler 4, PCRmax, Stone, Staffordshire, UK). The samples were placed on ice for 10 min, then 10 µl was removed and transferred to a white 96 well assay plate (Corning, cat#3917). […]

[2] = target: T1, eIF4E:eIF4G interaction (Homo sapiens, UniProt P06730); test: Electro-chemiluminescent binding assay, eIF4E:eIF4G, H1299 cell lysates; type: biochemical; parameters: endogenous in cells; host or cells: HeLa, SW620 or H1299 cells (lysates; intact H1299 cells in A13); conditions: for endogenous eIF4E:eIF4G interaction, electro-chemiluminescent signal, Average: n=3, 0 μM control in r69
Protocol: (§1) This assay uses plates with carbon electrodes and electro-chemiluminescent labels (SULFO-TAGs) that are conjugated to detection antibodies. When an electric current is applied to the plate electrodes the SULFO-TAG labels will emit light that is measured to quantify analytes in the sample. […] The plates were washed with 3 ×150 µl/well MSD wash buffer (cat#R61AA-1; 0.2% Tween-20 in PBS), then blocked with 150 µl/well block buffer (MSD, cat# R93AA) for 1 h. […] The incubated plates were washed 4x in 150 µl in MSD wash buffer and were re-blocked by the addition of 25 μl of blocking buffer containing a 1:500 dilution of the secondary antibody and incubated for 1 hr at RT with rotational shaking. […] Plates were then washed again 4x in 150 µl in MSD wash buffer and 25 μl of a 1:50 dilution of Goat anti-rabbit Sulfo-Tag (MSD, Cat# R32AB-1) in MSD blocking buffer was added and the plates incubated for 1 h at RT with rotational shaking. After a final wash step, 150 μl Read Buffer T4X (MSD, Cat# R92-TC2) was added and the plate read using the MSD QuickPlex SQ 120 plate reader.

[3] = target: T2, eIF4E major variant (D127) (Homo sapiens, UniProt P06730); type: binding; conditions: for LE (ligand efficiency) / Kd: major variant D127 (values in parentheses); for Kd: read-out: eIF4E Kd
T2 construct: made in house; host or cells: E. coli (as described for clone 2983)
Protocol: ITC experiments were performed on either a MicroCal VP-ITC or a MicroCal Auto-ITC200 at 25 °C in a buffer comprising 50 mM HEPES, 100 mM NaCl, 1 mM TCEP and 5% DMSO at pH 7.5. Typical titrations on the MicroCal VP-ITC were performed using 17 × 16.4 µL injections with a 250 s spacing between each injection and with a stirring speed of 307 rpm. Typical titrations on the MicroCal Auto-ITC200 were performed using 12 × 3 µL injections with a 150 s spacing between each injection and with a stirring speed of 750 rpm. ITC data analyses were performed with Origin 7.0 software using the “One Set of Sites” model.

[4] = target: T3, 4E-BP1 binding to eIF4E (Homo sapiens, UniProt P06730); test: Co-immunoprecipitation with eIF4E antibody, immunoblot for 4E-BP1, SW620 lysates; type: biochemical; conditions: 1–100 µM, 30 min
T3 construct: endogenous in cells; host or cells: SW620 cell lysates

[5] = test system: cap-dependent and cap-independent (IRES) protein synthesis; test: Bicistronic protein synthesis reporter in H1299 cells; type: cell-based, human; conditions: 24 hr; for protein synthesis reporter signal (cap-dependent luciferase / IRES luciferase), replicate values: H1299, normalisation not stated
Protocol: H1299 cells were transfected with a biscistronic vector using Lipofectamine 3000 transfection reagent (Fisher Scientific, cat#L3000008) for 24 hr and then treated with compounds for further 24 h. Luminescence was measured after 24 h of compound treatment using the Dual Glo luciferase reporter assays as above.

[6] = target: eIF4E–4E-BP1 interaction (Homo sapiens, UniProt P06730); test: Electro-chemiluminescent binding assay, eIF4E:4E-BP1, HeLa cell lysates; type: biochemical; parameters: endogenous in cells; host or cells: HeLa cell lysates; conditions: for EC50: read-out: Inhibition of PPI in HeLa cells: eIF4E–4E-BP1 interaction, HeLa cell lysates, values in parentheses
Protocol: as §1

[7] = target: T4, endogenous eIF4E:eIF4G interaction (Homo sapiens, UniProt P06730); test: Electro-chemiluminescent eIF4E:eIF4G assay after treatment of intact H1299 cells; type: cell-based; conditions: 100 µM; for disruption of eIF4E:eIF4G binding in intact cells: 16 hr; for endogenous eIF4E:eIF4G interaction in intact cells, electro-chemiluminescent signal, Average: H1299
T4 construct: endogenous in cells; host or cells: HeLa, SW620 or H1299 cells (lysates; intact H1299 cells in A13)

[8] = target: T1, eIF4E:eIF4G interaction; test: Electro-chemiluminescent binding assay, eIF4E:eIF4G, HeLa cell lysates; type: biochemical; parameters: endogenous in cells; host or cells: HeLa cells (lysates); conditions: for EC50: n = 4, read-out: Inhibition of PPI in HeLa cells: eIF4E-eIF4G interaction; for binding of eIF4G or 4E-BP1 with eIF4E, luminescence normalised to DMSO control, Average: HeLa, n=3, Fig. 4e
Protocol: as §1

[9] = HeLa lysates, 100 µM, 30 min, single experiments Expt 1, Expt 2

Sequence of eIF4E–4E-BP1 interaction (P06730 2-217 limits assumed): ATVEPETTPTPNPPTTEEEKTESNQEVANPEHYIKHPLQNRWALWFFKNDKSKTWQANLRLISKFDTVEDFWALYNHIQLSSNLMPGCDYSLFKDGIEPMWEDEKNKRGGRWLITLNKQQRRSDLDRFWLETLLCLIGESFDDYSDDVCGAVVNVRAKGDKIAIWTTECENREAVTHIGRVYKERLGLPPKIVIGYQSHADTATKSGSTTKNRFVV
T4 sequence (P06730 2-217 limits assumed): as above
T1 sequence (P06730 2-217 limits assumed): as above
T2 sequence (P06730 with tags, fused parts or gaps): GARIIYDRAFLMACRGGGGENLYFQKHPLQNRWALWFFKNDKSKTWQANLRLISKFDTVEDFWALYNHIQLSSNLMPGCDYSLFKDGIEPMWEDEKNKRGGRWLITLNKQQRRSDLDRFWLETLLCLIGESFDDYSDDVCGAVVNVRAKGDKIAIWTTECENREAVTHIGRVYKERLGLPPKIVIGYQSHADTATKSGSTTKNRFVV
T3 sequence (P06730 2-217 limits assumed): as the sequence (P06730 2-217 limits assumed) above

SMILES | rLuc (IRES) luminescence normalized to DMSO control, Average ([1]; 1 μM) [%] | rLuc (IRES) luminescence normalized to DMSO control, Average ([1]; 10 μM) [%] | rLuc (IRES) luminescence normalized to DMSO control, Average ([1]; 100 μM) [%] | endogenous eIF4E:eIF4G interaction, electro-chemiluminescent signal, Average ([2]; 0.1 μM) | endogenous eIF4E:eIF4G interaction, electro-chemiluminescent signal, Average ([2]; 1 μM) | endogenous eIF4E:eIF4G interaction, electro-chemiluminescent signal, Average ([2]; 10 μM) | endogenous eIF4E:eIF4G interaction, electro-chemiluminescent signal, Average ([2]; 100 μM) | LE (ligand efficiency) [3] | Kd ([3]; ITC) [nM] | effect on 4E-BP1 binding to eIF4E (co-immunoprecipitation) [4] | protein synthesis reporter signal (cap-dependent luciferase / IRES luciferase), replicate values ([5]; 10 μM) | protein synthesis reporter signal (cap-dependent luciferase / IRES luciferase), replicate values ([5]; 25 μM) | EC50 [6] [nM] | disruption of eIF4E:eIF4G binding in intact cells [7] | endogenous eIF4E:eIF4G interaction in intact cells, electro-chemiluminescent signal, Average ([7]; 6hr, control 1641896.8) | endogenous eIF4E:eIF4G interaction in intact cells, electro-chemiluminescent signal, Average ([7]; 16hr, control 1700881.1) | EC50 ([8]; HeLa cell lysates) [nM] | binding of eIF4G or 4E-BP1 with eIF4E, luminescence normalised to DMSO control, Average ([8]; Conc 0.03 μM) [%] | binding of eIF4G or 4E-BP1 with eIF4E, luminescence normalised to DMSO control, Average ([8]; Conc 0.1 μM) [%] | binding of eIF4G or 4E-BP1 with eIF4E, luminescence normalised to DMSO control, Average ([8]; Conc 0.3 μM) [%] | also measured
CC[C@H](O[C@H](C)CO)c1ccc(-c2ccccc2F)cc1NCCO [Compound 4] | 97.0 | 85.6 | 88.7 | 820654.4 | 641951.8 | 429514.6 | 347571.1 | 0.38 (kcal/mol)/heavy atom | 90 | did not disrupt 4E-BP1 binding to eIF4E | 0.798 and 0.925 and 1.853 and 1.040 and 0.865 and 0.241 | 1.174 and 0.369 and 0.133 and 0.780 and 0.760 and 1.031 | > 100000 | significantly disrupt eIF4E:eIF4G binding | 1444726.0 | 549014.1 | 1400 | 97.2 | 114.5 | 82.4 | EC50 ([1]; HeLa in vitro translation, 30 min, read-out: effect on IRES-driven translation): > 100000 nM; EC50 ([2]; read-out: EC50, eIF4G:eIF4E binding): ~1500 nM; enthalpy DH ([3]; ITC, eIF4E D127): -10.2 kcal/mol; entropic penalty -TDS ([3]; ITC, eIF4E D127): 0.6 ± 0.4 kcal/mol; inhibitory activity in dual reporter assay ([5]; H1299 cells): lacked inhibitory activity; 4E-BP1:eIF4E HeLa, luminescence ratio normalised to DMSO control [6, 9]: 88% and 92%; eIF4G:eIF4E HeLa, luminescence ratio normalised to DMSO control [8, 9]: 6.4% and 10%; binding of eIF4G or 4E-BP1 with eIF4E, luminescence normalised to DMSO control, Average ([8]; Conc 1 μM): 79.9%; binding of eIF4G or 4E-BP1 with eIF4E, luminescence normalised to DMSO control, Average ([8]; Conc 3 μM): 54.2%; binding of eIF4G or 4E-BP1 with eIF4E, luminescence normalised to DMSO control, Average ([8]; Conc 10 μM): 38.7%; binding of eIF4G or 4E-BP1 with eIF4E, luminescence normalised to DMSO control, Average ([8]; Conc 30 μM): 33.9%; binding of eIF4G or 4E-BP1 with eIF4E, luminescence normalised to DMSO control, Average ([8]; Conc 100 μM): 26.4%; binding of eIF4G or 4E-BP1 with eIF4E, luminescence normalised to DMSO control, Average ([8]; Conc 300 μM): 22.8%; binding of eIF4G or 4E-BP1 with eIF4E, luminescence normalised to DMSO control, Average ([8]; Conc 1000 μM): 28.1%
CC[C@@H](O[C@H](C)CO)c1ccc(-c2ccccc2F)cc1NCCO [Compound 5] | 100.6 | 89.2 | 98.4 | 815674.7 | 773437.1 | 757778.5 | 644050.9 | - (0.3) (kcal/mol)/heavy atom | 3000 | limited effect | 0.991 and 1.031 and 2.154 and 1.191 and 1.096 and 0.294 | 1.003 and 1.037 and 1.187 and 0.927 and 1.046 and 2.532 | > 100000 | some limited evidence of activity | 1584729.4 | 1071107.1 | > 100000 | 75.0 | 70.5 | 80.4 | effect on cap-independent IRES-driven translation ([1]; 1, 10, 100 µM): no significant effect; inhibition of eIF4G:eIF4E binding ([2]; 100 µM): ~ 10%; reduced binding affinity by ITC ([3]; compound 5 versus compound 4): 30 fold; effect on eIF4G binding ([8]; HeLa cell lysates): limited effect on eIF4G binding compared to 4; binding of eIF4G or 4E-BP1 with eIF4E, luminescence normalised to DMSO control, Average ([8]; Conc 1 μM): 86.3%; binding of eIF4G or 4E-BP1 with eIF4E, luminescence normalised to DMSO control, Average ([8]; Conc 3 μM): 81.2%; binding of eIF4G or 4E-BP1 with eIF4E, luminescence normalised to DMSO control, Average ([8]; Conc 10 μM): 84.0%; binding of eIF4G or 4E-BP1 with eIF4E, luminescence normalised to DMSO control, Average ([8]; Conc 30 μM): 77.0%; binding of eIF4G or 4E-BP1 with eIF4E, luminescence normalised to DMSO control, Average ([8]; Conc 100 μM): 75.2%; binding of eIF4G or 4E-BP1 with eIF4E, luminescence normalised to DMSO control, Average ([8]; Conc 300 μM): 79.2%; binding of eIF4G or 4E-BP1 with eIF4E, luminescence normalised to DMSO control, Average ([8]; Conc 1000 μM): 79.6%
